Data reported in patent US20090142347A1, “Tissue-Nonspecific Alkaline Phosphatase (TNAP): a Therapeutic Target for Arterial Calcification” (THE BURNHAM INSTITUTE FOR MEDICAL RESEARCH, priority 2004, published 2009).

How the values were obtained:
hPLALP (E107, G108) = biological target: T1, hPLALP (E107, G108) (Homo sapiens, UniProt P05187, F129E/Q130G); test: Ki of uncompetitive inhibitors (pNPP substrate); format: biochemical; conditions: hPLALP mutant (E107, G108); read-out: Ki for various inhibitors
T1 construct: made in house; host or cells: COS-7 (given only for the TNAP-Flag constructs)
T1 sequence (P05187 23-506 F129E/Q130G limits assumed): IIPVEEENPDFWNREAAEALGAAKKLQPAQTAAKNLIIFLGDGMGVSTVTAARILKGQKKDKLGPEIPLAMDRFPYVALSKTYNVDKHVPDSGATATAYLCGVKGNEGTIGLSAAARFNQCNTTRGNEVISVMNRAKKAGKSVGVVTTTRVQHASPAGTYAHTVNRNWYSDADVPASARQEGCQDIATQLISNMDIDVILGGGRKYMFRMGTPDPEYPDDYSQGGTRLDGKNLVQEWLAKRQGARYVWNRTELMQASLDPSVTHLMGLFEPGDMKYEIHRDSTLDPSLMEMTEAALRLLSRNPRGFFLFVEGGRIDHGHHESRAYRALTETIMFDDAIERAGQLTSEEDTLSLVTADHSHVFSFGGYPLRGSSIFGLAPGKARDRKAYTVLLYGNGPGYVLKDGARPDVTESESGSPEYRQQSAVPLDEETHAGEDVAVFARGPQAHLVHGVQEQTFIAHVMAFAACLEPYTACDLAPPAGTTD
Description: (§1) In brief, samples of the enzymes were added to microtiter plates coated with M2 anti-FLAG antibody, and saturating activities with the substrate pNPP were measured in 1 M DEA/HCl buffer, pH 9.8, containing 1 mM MgCl2 and 20 .micro.M ZnCl2.

hPLALP (E107, G429) = biological target: T2, hPLALP (E107, G429) (Homo sapiens, UniProt P05187, E451G/F129E); test: Ki of uncompetitive inhibitors (pNPP substrate); format: biochemical; conditions: hPLALP mutant (E107, G429); read-out: Ki for various inhibitors
T2 construct: made in house; host or cells: COS-7 (given only for the TNAP-Flag constructs)
T2 sequence (P05187 23-506 F129E/E451G limits assumed): as the sequence (P05187 23-506 F129E/Q130G limits assumed) above, with G108Q, E429G counted along it
Description: as §1

hPLALP (G108, G429) = biological target: T3, hPLALP (G108, G429) (Homo sapiens, UniProt P05187, E451G/Q130G); test: Ki of uncompetitive inhibitors (pNPP substrate); format: biochemical; conditions: hPLALP mutant (G108, G429); read-out: Ki for various inhibitors
T3 construct: made in house; host or cells: COS-7 (given only for the TNAP-Flag constructs)
T3 sequence (P05187 23-506 Q130G/E451G limits assumed): as the sequence (P05187 23-506 F129E/Q130G limits assumed) above, with E107F, E429G counted along it
Description: as §1

hPLALP = biological target: T4, hPLALP (Homo sapiens, UniProt P05187); test: Ki of uncompetitive inhibitors (pNPP substrate); format: biochemical; conditions: read-out: Ki for various inhibitors
T4 construct: made in house
T4 sequence (P05187 23-506 limits assumed): as the sequence (P05187 23-506 F129E/Q130G limits assumed) above, with E107F, G108Q counted along it
Description: as §1

hPLALP (R428, H429) = biological target: T5, hPLALP (R428, H429) (Homo sapiens, UniProt P05187, D450R/E451H); test: Ki of uncompetitive inhibitors (pNPP substrate); format: biochemical; conditions: hPLALP mutant (R428, H429); read-out: Ki for various inhibitors
T5 construct: made in house; host or cells: COS-7 (given only for the TNAP-Flag constructs)
T5 sequence (P05187 23-506 D450R/E451H limits assumed): as the sequence (P05187 23-506 F129E/Q130G limits assumed) above, with E107F, G108Q, D428R, E429H counted along it
Description: as §1

hPLALP D165 = biological target: T6, hPLALP D165 (Homo sapiens, UniProt P05187, N187D); test: Ki of uncompetitive inhibitors (pNPP substrate); format: biochemical; conditions: hPLALP mutant D165; read-out: Ki for various inhibitors
T6 construct: made in house; host or cells: COS-7 (given only for the TNAP-Flag constructs)
T6 sequence (P05187 23-506 N187D limits assumed): as the sequence (P05187 23-506 F129E/Q130G limits assumed) above, with E107F, G108Q, N165D counted along it
Description: as §1

hPLALP E107 = biological target: T7, hPLALP E107 (Homo sapiens, UniProt P05187, F129E); test: Ki of uncompetitive inhibitors (pNPP substrate); format: biochemical; conditions: hPLALP mutant E107; read-out: Ki for various inhibitors
T7 construct: made in house
T7 sequence (P05187 23-506 F129E limits assumed): as the sequence (P05187 23-506 F129E/Q130G limits assumed) above, with G108Q counted along it
Description: as §1

hPLALP G108 = biological target: T8, hPLALP G108 (Homo sapiens, UniProt P05187, Q130G); test: Ki of uncompetitive inhibitors (pNPP substrate); format: biochemical; conditions: hPLALP mutant G108; read-out: Ki for various inhibitors
T8 construct: made in house; host or cells: COS-7 (given only for the TNAP-Flag constructs)
T8 sequence (P05187 23-506 Q130G limits assumed): as the sequence (P05187 23-506 F129E/Q130G limits assumed) above, with E107F counted along it
Description: as §1

hPLALP G429 = biological target: T9, hPLALP G429 (Homo sapiens, UniProt P05187, E451G); test: Ki of uncompetitive inhibitors (pNPP substrate); format: biochemical; conditions: hPLALP mutant G429; read-out: Ki for various inhibitors
T9 construct: made in house; host or cells: COS-7 (given only for the TNAP-Flag constructs)
T9 sequence (P05187 23-506 E451G limits assumed): as the sequence (P05187 23-506 F129E/Q130G limits assumed) above, with E107F, G108Q, E429G counted along it
Description: as §1

hPLALP H429 = biological target: T10, hPLALP H429 (Homo sapiens, UniProt P05187, E451H); test: Ki of uncompetitive inhibitors (pNPP substrate); format: biochemical; conditions: hPLALP mutant H429; read-out: Ki for various inhibitors
T10 construct: made in house; host or cells: COS-7 (given only for the TNAP-Flag constructs)
T10 sequence (P05187 23-506 E451H limits assumed): as the sequence (P05187 23-506 F129E/Q130G limits assumed) above, with E107F, G108Q, E429H counted along it
Description: as §1

hPLALP R428 = biological target: T11, hPLALP R428 (Homo sapiens, UniProt P05187, D450R); test: Ki of uncompetitive inhibitors (pNPP substrate); format: biochemical; conditions: hPLALP mutant R428; read-out: Ki for various inhibitors
T11 construct: made in house; host or cells: COS-7 (given only for the TNAP-Flag constructs)
T11 sequence (P05187 23-506 D450R limits assumed): as the sequence (P05187 23-506 F129E/Q130G limits assumed) above, with E107F, G108Q, D428R counted along it
Description: as §1

hPLALP S119 = biological target: T12, hPLALP S119 (Homo sapiens, UniProt P05187, N141S); test: Ki of uncompetitive inhibitors (pNPP substrate); format: biochemical; conditions: hPLALP mutant S119; read-out: Ki for various inhibitors
T12 construct: made in house; host or cells: COS-7 (given only for the TNAP-Flag constructs)
T12 sequence (P05187 23-506 N141S limits assumed): as the sequence (P05187 23-506 F129E/Q130G limits assumed) above, with E107F, G108Q, N119S counted along it
Description: as §1

hTNALP = hTNALP (Homo sapiens, UniProt P05186); test: biochemical
hTNALP, sequence (P05186 18-501): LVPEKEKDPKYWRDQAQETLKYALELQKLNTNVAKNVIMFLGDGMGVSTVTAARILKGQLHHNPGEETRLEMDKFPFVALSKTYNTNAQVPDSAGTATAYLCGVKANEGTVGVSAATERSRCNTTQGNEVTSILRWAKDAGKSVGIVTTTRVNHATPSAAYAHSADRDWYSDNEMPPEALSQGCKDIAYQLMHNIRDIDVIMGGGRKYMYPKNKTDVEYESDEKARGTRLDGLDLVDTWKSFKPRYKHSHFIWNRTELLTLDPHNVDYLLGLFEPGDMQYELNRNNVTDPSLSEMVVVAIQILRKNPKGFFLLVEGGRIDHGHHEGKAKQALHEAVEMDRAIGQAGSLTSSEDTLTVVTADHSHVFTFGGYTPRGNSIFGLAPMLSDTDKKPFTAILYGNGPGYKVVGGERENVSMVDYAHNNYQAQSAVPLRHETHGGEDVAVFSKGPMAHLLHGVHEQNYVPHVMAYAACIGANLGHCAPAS

hTNALP A108 = hTNALP A108 (Homo sapiens, UniProt P05186, E125A); test: biochemical
hTNALP A108, sequence (P05186 18-501 E125A): as the sequence (P05186 18-501) above, with E108A counted along it

hTNALP F108 = hTNALP F108 (Homo sapiens, UniProt P05186, E125F); test: biochemical
hTNALP F108, sequence (P05186 18-501 E125F): as the sequence (P05186 18-501) above, with E108F counted along it

hTNALP Q109 = hTNALP Q109 (Homo sapiens, UniProt P05186, G126Q); test: biochemical
hTNALP Q109, sequence (P05186 18-501 G126Q): as the sequence (P05186 18-501) above, with G109Q counted along it

hTNALP (F104, Q109) = hTNALP (F104, Q109) (Homo sapiens, UniProt P05186, E125F/G126Q); test: biochemical
hTNALP (F104, Q109), sequence (P05186 whole entry E125F/G126Q): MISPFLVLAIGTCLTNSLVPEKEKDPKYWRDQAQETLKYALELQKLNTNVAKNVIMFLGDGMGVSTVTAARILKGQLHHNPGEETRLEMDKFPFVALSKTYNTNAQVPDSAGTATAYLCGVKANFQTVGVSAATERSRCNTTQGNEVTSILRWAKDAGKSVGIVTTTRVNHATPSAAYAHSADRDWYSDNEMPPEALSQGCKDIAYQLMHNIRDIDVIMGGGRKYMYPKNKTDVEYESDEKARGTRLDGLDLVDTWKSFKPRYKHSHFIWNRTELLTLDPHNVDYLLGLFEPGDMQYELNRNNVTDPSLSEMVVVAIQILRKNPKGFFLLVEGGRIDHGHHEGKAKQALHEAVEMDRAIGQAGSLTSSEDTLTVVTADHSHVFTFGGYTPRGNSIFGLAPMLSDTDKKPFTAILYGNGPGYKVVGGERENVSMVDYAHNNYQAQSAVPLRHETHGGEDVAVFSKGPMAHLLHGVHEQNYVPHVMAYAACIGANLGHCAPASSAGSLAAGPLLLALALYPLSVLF

hTNALP A120 = hTNALP A120 (Homo sapiens, UniProt P05186, S137A); test: biochemical
hTNALP A120, sequence (P05186 18-501 S137A): as the sequence (P05186 18-501) above, with S120A counted along it

hTNALP D120 = hTNALP D120 (Homo sapiens, UniProt P05186, S137D); test: biochemical
hTNALP D120, sequence (P05186 18-501 S137D): as the sequence (P05186 18-501) above, with S120D counted along it

hTNALP N120 = hTNALP N120 (Homo sapiens, UniProt P05186, S137N); test: biochemical
hTNALP N120, sequence (P05186 18-501 S137N): as the sequence (P05186 18-501) above, with S120N counted along it

hTNALP A166 = hTNALP A166 (Homo sapiens, UniProt P05186, D183A); test: biochemical
hTNALP A166, sequence (P05186 18-501 D183A): as the sequence (P05186 18-501) above, with D166A counted along it

hTNALP N166 = hTNALP N166 (Homo sapiens, UniProt P05186, D183N); test: biochemical
hTNALP N166, sequence (P05186 18-501 D183N): as the sequence (P05186 18-501) above, with D166N counted along it

hTNALP N168 = hTNALP N168 (Homo sapiens, UniProt P05186, D185N); test: biochemical
hTNALP N168, sequence (P05186 18-501 D185N): as the sequence (P05186 18-501) above, with D168N counted along it

hTNALP A433 = hTNALP A433 (Homo sapiens, UniProt P05186, R450A); test: biochemical
hTNALP A433, sequence (P05186 18-501 R450A): as the sequence (P05186 18-501) above, with R433A counted along it

hTNALP D433 = hTNALP D433 (Homo sapiens, UniProt P05186, R450D); test: biochemical
hTNALP D433, sequence (P05186 whole entry R450D): as the sequence (P05186 whole entry E125F/G126Q) above, with F125E, Q126G, R450D counted along it

hTNALP A434 = hTNALP A434 (Homo sapiens, UniProt P05186, H451A); test: biochemical
hTNALP A434, sequence (P05186 18-501 H451A): as the sequence (P05186 18-501) above, with H434A counted along it

hTNALP Q434 = hTNALP Q434 (Homo sapiens, UniProt P05186, H451Q); test: biochemical
hTNALP Q434, sequence (P05186 18-501 H451Q): as the sequence (P05186 18-501) above, with H434Q counted along it

hTNALP G434 = hTNALP G434 (Homo sapiens, UniProt P05186, H451G); test: biochemical
hTNALP G434, sequence (P05186 18-501 H451G): as the sequence (P05186 18-501) above, with H434G counted along it

hTNALP S434 = hTNALP S434 (Homo sapiens, UniProt P05186, H451S); test: biochemical
hTNALP S434, sequence (P05186 18-501 H451S): as the sequence (P05186 18-501) above, with H434S counted along it

hTNALP B434 = hTNALP B434 (Homo sapiens, UniProt P05186, H451E); test: biochemical
hTNALP B434, sequence (P05186 whole entry H451E): as the sequence (P05186 whole entry E125F/G126Q) above, with F125E, Q126G, H451E counted along it

SMILES | Ki (hPLALP (E107, G108)) | Ki (hPLALP (E107, G429)) | Ki (hPLALP (G108, G429)) | Ki (hPLALP) | Ki (hPLALP (R428, H429)) | Ki (hPLALP D165) | Ki (hPLALP E107) | Ki (hPLALP G108) | Ki (hPLALP G429) | Ki (hPLALP H429) | Ki (hPLALP R428) | Ki (hPLALP S119) | Ki (hTNALP) | Ki (hTNALP A108) | Ki (hTNALP F108) | Ki (hTNALP Q109) | Ki (hTNALP (F104, Q109)) | Ki (hTNALP A120) | Ki (hTNALP D120) | Ki (hTNALP N120) | also measured
N[C@@H](Cc1ccccc1)C(=O)O [L-Phe, L-phenylalanine] | 23 ± 2 mM | 1 ± 0.16 mM | 0.49 ± 0.06 mM | 0.75 ± 0.05 mM | 0.35 ± 0.04 mM | 0.54 ± 0.04 mM | 3.8 ± 0.4 mM | 2.4 ± 0.3 mM | 0.09 ± 0.01 mM | 0.31 ± 0.03 mM | 0.54 ± 0.05 mM | 0.67 ± 0.08 mM | 19 ± 6 mM | 27 ± 4 mM | 3.7 ± 0.5 mM | 4 ± 1.1 mM | 2.1 ± 0.4 mM | 24 ± 2 mM | 34 ± 4 mM | 23 ± 8 mM | Ki (hTNALP A166): 24 ± 4 mM; Ki (hTNALP N166): 32 ± 5 mM; Ki (hTNALP N168): 42 ± 6 mM; Ki (hTNALP A433): 31 ± 3 mM; Ki (hTNALP D433): 23 ± 5 mM; Ki (hTNALP A434): 21 ± 6 mM; Ki (hTNALP Q434): 9.8 ± 1 mM; Ki (hTNALP G434): 9.6 ± 1 mM; Ki (hTNALP S434): 13 ± 2 mM; Ki (hTNALP B434): 43 ± 8 mM
N=C(N)NCCCC[C@H](N)C(=O)O [L-hArg, L-homoarginine] | 12 ± 1.6 mM | 1.5 ± 0.2 mM | 18 ± 2 mM | 59 ± 15 mM | 14 ± 1 mM | 59 ± 25 mM | 5.7 ± 0.9 mM | 60 ± 9 mM | 12 ± 2 mM | 10.7 ± 1.5 mM | 36 ± 4 mM | 61 ± 13 mM | 1.4 ± 0.1 mM | 14 ± 1 mM | 48 ± 11 mM | 1.6 ± 0.1 mM | 15 ± 2 mM | 1.4 ± 0.1 mM | 1.4 ± 0.1 mM | 1.3 ± 0.1 mM | Ki (hTNALP A166): 1.6 ± 0.3 mM; Ki (hTNALP N166): 1.8 ± 0.1 mM; Ki (hTNALP N168): 1.8 ± 0.1 mM; Ki (hTNALP A433): 1.6 ± 0.2 mM; Ki (hTNALP D433): 1.5 ± 0.2 mM; Ki (hTNALP A434): 1.5 ± 0.1 mM; Ki (hTNALP Q434): 2 ± 0.1 mM; Ki (hTNALP G434): 1.6 ± 0.2 mM; Ki (hTNALP S434): 1.6 ± 0.1 mM; Ki (hTNALP B434): 6.8 ± 0.5 mM
